Reference: PMC12935787, “Clinical pharmacokinetics and pharmacometabolomics of Andrographis paniculata capsules: Bridging drug disposition and metabolic response to precision medicine” (Naunyn-Schmiedeberg's Archives of Pharmacology, 2025)
Read-outs that look alike come from different tables or passages of the source.

Experiment: Clinical pharmacokinetics, plasma LC-MS/MS after single oral dose of AP capsules
Assay type: in vivo, human (healthy volunteers)
Details: human, plasma, oral, 2000 mg, 2000 mg AP capsules, read-out: Plasma concentration; for concentration at 0.5 h: 0.50 h; for concentration at 1.5 h: 1.50 h; for concentration at 2.5 h: 2.50 h; for concentration at 3.5 h: 3.50 h
Method: The protocol was published (Tee et al. [2022]).
Seven calibrators ranging from 1, 2, 5,10, 20, 50, and 100 ng mL^−1 were prepared. Frozen plasma was thawed, vortexed-mixes, and processed via protein precipitation: 50 µL plasma plus 100 µL 0.01% ammonia in methanol were vortexed (20 s), centrifuged (14800 rpm, 5 min) and […] supernatant was transferred to 2 mL vials with inserts. LC–MS/MS injection volume: 10 µL. The separation used a Phenomenex Gemini-NX C18 column (150 × 2.1 mm, 5 μm) with 0.01% ammonia (A) and acetonitrile/methanol (1:1, B) as mobile phases (0.30 mL min^-1). The gradient program: 40% B (0 min), linear increase to 95% B (3 min), hold to 5 min, sharp decrease to 10% B (5.01 min), hold to 7 min, return to 40% B (7.01 min), and re-equilibration to 10 min. Mass detection employed an LCMS-8060NX triple quadrupole with heated ESI in negative mode, monitoring specific MRM transitions: andrographolide (349.3 → 331.2/287.1), 14-deoxyandrographolide (331.2 → 108.0/301.1), and neoandrographolide (479.1 → 317.4/161.1).
Pharmacokinetic parameters were determined from plasma samples (5 subjects, 15 time points) analyzed via LC–MS/MS (Shimadzu 8060NX). […] Specific MRM transitions for andrographolide, 14-deoxyandrographolide, and neoandrographolide in plasma samples of subjects are illustrated in Figure S3. […] The dose-dependent concentration–time curves, pharmacokinetics profiles (Fig. 2a, b and c) and comprehensive individual PK data (Table S4) provide a foundation for developing personalized AP dosing regimens, supporting its precision medicine potential.

With `C=C1CC[C@@H]2[C@](C)(CO)[C@H](O)CC[C@@]2(C)[C@@H]1C/C=C1/C(=O)OC[C@H]1O` [andrographolide] the concentration at 0 h (S1) was 0 ng/mL, the concentration at 0.5 h (S1) was 3.76 ng/mL and the concentration at 1 h (S1) was 2.41 ng/mL. It also gave a concentration at 1.5 h (S1) of 6.36 ng/mL, a concentration at 2 h (S1) of 5.31 ng/mL and a concentration at 2.5 h (S1) of 2.17 ng/mL. For the same compound, the concentration at 3 h (S1) was 3.86 ng/mL, the concentration at 3.5 h (S1) was 2.81 ng/mL and the concentration at 4 h (S1) was 0 ng/mL. For the same compound, the concentration at 5 h (S1) was 0 ng/mL, the concentration at 6 h (S1) was 0 ng/mL and the concentration at 8 h (S1) was 0 ng/mL. The concentration at 10 h (S1) was 0 ng/mL, the concentration at 12 h (S1) was 0 ng/mL and the concentration at 24 h (S1) was 0 ng/mL. It also gave a concentration at 0 h (S2) of 0 ng/mL, a concentration at 0.5 h (S2) of 0 ng/mL and a concentration at 1 h (S2) of 3.98 ng/mL. It also gave a concentration at 1.5 h (S2) of 5.56 ng/mL, a concentration at 2 h (S2) of 5.07 ng/mL and a concentration at 2.5 h (S2) of 3.13 ng/mL. For the same compound, the concentration at 3 h (S2) was 4.68 ng/mL, the concentration at 3.5 h (S2) was 0 ng/mL and the concentration at 4 h (S2) was 0 ng/mL. The concentration at 5 h (S2) was 0 ng/mL, the concentration at 6 h (S2) was 0 ng/mL and the concentration at 8 h (S2) was 0 ng/mL. For the same compound, the concentration at 10 h (S2) was 0 ng/mL, the concentration at 12 h (S2) was 0 ng/mL and the concentration at 24 h (S2) was 0 ng/mL. It also gave a concentration at 0 h (S3) of 0 ng/mL, a concentration at 0.5 h (S3) of 39.4 ng/mL and a concentration at 1 h (S3) of 13.8 ng/mL. The concentration at 1.5 h (S3) was 14.2 ng/mL, the concentration at 2 h (S3) was 4.19 ng/mL and the concentration at 2.5 h (S3) was 3.47 ng/mL. The concentration at 3 h (S3) was 0 ng/mL, the concentration at 3.5 h (S3) was 0 ng/mL and the concentration at 4 h (S3) was 0 ng/mL. For the same compound, the concentration at 5 h (S3) was 0 ng/mL, the concentration at 6 h (S3) was 0 ng/mL and the concentration at 8 h (S3) was 0 ng/mL. It also gave a concentration at 10 h (S3) of 0 ng/mL, a concentration at 12 h (S3) of 0 ng/mL and a concentration at 24 h (S3) of 0 ng/mL. It also gave a concentration at 0 h (S4) of 0 ng/mL, a concentration at 0.5 h (S4) of 0 ng/mL and a concentration at 1 h (S4) of 18.3 ng/mL. For the same compound, the concentration at 1.5 h (S4) was 22.1 ng/mL, the concentration at 2 h (S4) was 12.7 ng/mL and the concentration at 2.5 h (S4) was 5.06 ng/mL. It also gave a concentration at 3 h (S4) of 4.2 ng/mL, a concentration at 3.5 h (S4) of 2.09 ng/mL and a concentration at 4 h (S4) of 0 ng/mL. The concentration at 5 h (S4) was 0 ng/mL.
